Results published in patent publication US9358226B2, “Triarylmethane analogs and their use in treating cancers” (Emory University, priority 2007, dated 2016).
Where two headings read alike, the source gives them in different places.

Experiments:
[1] = tested on: Leishmania amazonensis; test: Leishmaniasis model, in vitro promastigotes, parasites/mL; assay type: cell-based; details: for activity in first experiment: 1 and 0.1 mcM (ethanol 0.1 and 0.01%)
Procedure: The experiments were started using water as a solvent for the triarylmethanes (TPM, standing for triphenylmethane). However, water was not an effective solvent, so ethanol was substituted. Ethanol is toxic to leishmania, so a control group was tested with a higher ethanol concentration than that present on the TPM groups.
Each of FIGS. 4-7 has five or six groups with 50, 10, 1 and 0.1 mcM (micromolar) of TPMs (1, 2, 3 and 5) in ethanol, and two control groups: Ethanol 5% (50 mcM) and positive control.
The number of parasites was counted only after 48 hours. Again, an ethanol control at 0.1% was used.
The IC50 was calculated by the method described by Hills et al. (18) and Huber and Koella (19). Briefly, Hills proposed finding two concentrations, X1 and X2, such that the parasite density, Y1, at concentration X1 (and all lower concentrations) was more than half of the density found in the control, Y0, and that the parasite density, Y2, at concentration X2 (and all higher concentrations) was less than half of Y0. The IC50 was then found by linear extrapolation between X1 and X2: log(IC50)=log(X1)|[(Y1−Y0/2)/(Y1−Y2)][ log(X2)−log(X1)].
Compounds TPM 6 (MW=400.60), TPM 7 (MW=672.86), TPM 9 (MW=521.76) and TPM 10 (MW=662.95) were evaluated with the same methodology. They were tested using a maximum of 1% of ethanol in each treatment group. The ethanol control was also evaluated with the same concentration (1%).
The treatment groups were TPM 6 at a dosage of 0.05; 0.01; 0.005 and 0.001 mcM.

[2] = tested on: P. falciparum D6 (Chloroquine Sensitive); test: Malaria model, chloroquine sensitive P. falciparum; assay type: cell-based
Procedure: (§1) The compounds were tested in a malaria model using both chloroquine sensitive and multidrug resistant P. falciparum. The malaria model was the same as published in JAC Advance Access published online on Jul. 30, 2008, Journal of Antimicrobial Chemotherapy, doi:10.1093/jac/dkn315, the contents of which are hereby incorporated by reference, and the data is summarized in the table below.
(§2) Briefly, the assay involves exposing both chloroquine sensitive and multidrug resistant P. falciparum to the compounds. After one hour of exposure to the highest concentration of the compound, followed by removal of the compound, the growth of all stages of P. falciparum was observed. The reduction in the growth stages was then compared with untreated control parasites. […] The presence of strong inhibition (defined herein as 10% growth) of all parasite stages was evaluated when the parasites were exposed to various concentrations of various compounds.

[3] = tested on: P. falciparum Dd2 (Multidrug Resistant); test: Malaria model, multidrug resistant P. falciparum; assay type: cell-based
Procedure: as §1, §2

[4] = tested on: ang-2 mRNA; test: Quantitative reverse transcription-PCR for ang-2 in bEnd.3 cells; assay type: cell-based, murine; details: 10 μM, 6.5 hours
Procedure: bEnd.3 cells were seeded equally into six T-75 flasks and 24 hours later were treated with 0, 1, 5, 10, 15, and 20 μM concentrations of gentian violet (Sigma-Aldrich, no. G2039) in ethanol for 6.5 hours. RNA was extracted and purified using TRI reagent (Sigma-Aldrich, T9424) and measured using spectrophotometer (Perkin-Elmer UV/VIS, Wellesley, Mass.). RNA (1 μg) was used for DNase Amplification (Invitrogen, no. 18068-015, Carlsbad, Calif.) followed by first-strand synthesis for reverse transcription-PCR (Invitrogen SuperScript, no. 12371-019). 96-well Optical Reaction Plate (ABI PRISM, no. 128, Applied Biosystems, Foster City, Calif.) was used for the reverse transcription-PCR reaction. A measure of 2.5 μl of template, which had been diluted 1:10 in crosslinked water, was used in each well and the experiment was performed in triplicate. Ang pt2 (Applied Biosystems, Taqman Gene Expression Assay, Mm00545822_ml) and 18S (Applied Biosystems Taqman Gene Expression Assay, Hs99999901_sl) primers were used along with crosslinked molecular grade water (Cellgro, Mediatech, Inc., Herndon, Va.) and master mix (Applied Biosystems TaqMan Fast Universal PCR Master Mix (2^x)). The reaction was run on the 7900 Applied Biosystems Reader for Absolute Quantification for 96-well plates. C values were analyzed by ΔΔCt method, and the standard error of the mean was calculated (FIG. 3b). The same protocol was used for treatment with brilliant green (Sigma, no. B6756), except that the concentrations used were 0, 0.1, 0.25, 0.5, and 0.75 μM (FIG. 3a).

[5] = tested on: HIF2a; test: HIF2a expression model (quantitative RT-PCR); assay type: cell-based; details: WM35 PKB cells, 5 micromolar, 24 hours
Procedure: In this expression model, WM35 PKB cells are exposed to 5 micromolar of test compounds for 24 hours. At the end of this period, cells are harvested for RNA, which is then reverse transcribed into cDNA, and levels of HIF2a message are quantified using quantitative RT-PCR and corrected for a housekeeping RNA message.

[6] = tested on: T. brucei; test: Parasitemia in mice injected with T. brucei; assay type: in vivo
Procedure: In one study, the parasite was T. brucei. Mice were injected with parasites (5,000 parasites/mouse), and injected (s.c) with imipramine blue (1 mg/mice/day) starting from the day the mice were injected with parasites. The parasitemia level in blood was counted on each following day.
The experiment was repeated with IV administration of imipramine blue (100 μg of imipramine blue). […] Accordingly, it is important to find a therapeutic window (where treatment of parasitemia can be effected, without unwanted toxic effects). This therapeutic window is in the range of between about 150 and 250 μg.

[7] = tested on: bloodstream form of T. brucei; test: Bloodstream form of T. brucei, live cells, overnight treatment; assay type: cell-based; details: at 500 nm
Procedure: These and other compounds were tested on live cells.
The experiment was conducted with one million cells of the bloodstream form of T. brucei. After over night treatment with different compounds (at concentrations of 50 and 100 μmolar), cells were counted and plotted with controls.

[8] = tested on: myeloma cells (MM.1S, MM.1R, RPMI8226, and U266); test: MTT cell viability assay, myeloma cells; assay type: cell-based
Procedure: (§3) Imipramine blue was obtained from the department of dermatology, Emory University. MTT assays for myeloma cells (MM.1S, MM.1R, RPMI8226, and U266) were used to evaluate the cell viability. AnnexinV staining and cell cycle analysis was done by flow cytometry to assess the level of apoptosis and analyze cell cycle arrest. Western blotting was performed using antibodies to analyze the impact of imipramine blue on various targets. Bone marrow from myeloma patients were obtained with consent from the Winship Cancer Institute.

[9] = tested on: myeloma cells; test: AnnexinV staining and cell cycle analysis by flow cytometry; assay type: cell-based
Procedure: as §3

[10] = tested on: myeloma cells; test: Western blotting of myeloma cells; assay type: cell-based
Procedure: as §3

[11] = tested on: leukemia and lymphoma cell lines; test: Cell growth inhibition in leukemia and lymphoma cell lines; assay type: cell-based
[12] = tested on: CD38 positive population of primary cells from myeloma patients; test: Primary cells from myeloma patients, cell killing; assay type: cell-based, human; details: alone as a single agent or in combination with bortezomib
Procedure: as §3

[13] = ESR spectrum with superoxide dismutase; details: room temperature ESR, conditions as in Li et al.
Procedure: Li used ESR to confirm the production of NADPH-dependent.O2—by isolated endosomes (Li et al., Molecular and Cellular Biology, January 2006, p. 140-154, 26(1):140-154 (2006)). ESR assays were conducted at room temperature using a Bruker model EMX ESR spectrometer (Bruker). Vesicular fractions from each sample were mixed with the spin trap, 50 mM 5,5-dimethyl-1-pyrroline N-oxide (DMPO), in a total volume of 500 μl of PBS, pH 7.4. This solution contained iminodiacetic acid-chelating resin (10 ml/liter; Sigma-Aldrich). The reaction was initiated by adding NADPH to 100 μM and was immediately placed into the ESR spectrometer. DMPO-hydroxyl radical adduct formation was assayed for 10 min. Instrument settings were as follows: receiver gain, 1×10^6; modulation frequency, 100 kHz; microwave power, 40.14 mW; modulation amplitude, 1.0 G; and sweep rate, 1 G/s.

[14] = 48 hours, linear extrapolation method of Hills
[15] = summary table of experiments 1-4

With CCN(CC)c1ccc(C(=C2C=CC3C(C[C@H](N)C(=O)O)=CNC3=C2)c2ccc(N(CC)CC)cc2)cc1 (stereo partly drawn) [TPM 5] as the compound, how does the “activity in first experiment” value [1] read?
The value was “did not”.

For CCN(CC)c1ccc(C(=C2C=CC(C)C=C2)c2ccc(N(CC)CC)cc2)cc1 (stereo not drawn) [TPM 6], which IC50 ([2]; D6; read-out: IC50 (nM) vs P. falciparum D6 (Chloroquine Sensitive)) is on record?
The IC50 was 61.7 nM.

What about the “active / inactive in the malaria assay” value ([2]; summary over D6 and Dd2 strains) of the same compound?
The value was “active”.

And the IC50 ([3]; Dd2; read-out: IC50 (nM) vs P. falciparum Dd2 (Multidrug Resistant))?
Its IC50 is 48.9 nM.

And the “relative activity among compounds tested” value [1]?
Its value is “most active compound”.

And the growth inhibition ([1]; 0.01 mcM, 48 hours)?
Its growth inhibition is 41%.

What about the growth inhibition ([1]; 0.05 mcM, 48 hours) of the same compound?
Its growth inhibition is 59%.

And the growth inhibition ([1]; 0.1 mcM, 48 hours)?
The growth inhibition was 98%.

And the growth inhibition ([1]; 0.5 mcM, 48 hours)?
The growth inhibition was 98%.

What about the growth inhibition ([1]; 1 mcM, 48 hours) of the same compound?
The growth inhibition was 100%.

And the growth inhibition ([1]; 5 mcM, 48 hours)?
Its growth inhibition is 100%.

And the IC50 [1, 14]?
Its IC50 is ~20 nM.

And the IC50 [1, 15]?
Its IC50 is 20 nM.

Which “decrease in ang-2 expression compared to control” value [4] does the source give for c1ccc([I+]c2ccccc2)cc1 [DPI, diphenyliodonium] here?
The value was 80%.

For CCN(CC)CCCC(C)Nc1ccnc2cc(Cl)ccc12 (stereo not drawn) [Chloroquine, reference compound], which IC50 ([2]; Plasmodium falciparum, D6, read-out: IC50 (nM) vs P. falciparum D6 (Chloroquine Sensitive)) is on record?
The IC50 was 7.9 nM.

What about the IC50 ([3]; Plasmodium falciparum, DD2, read-out: IC50 (nM) vs P. falciparum Dd2 (Multidrug Resistant)) of the same compound?
The IC50 was 140 nM.

What does the source list for CCN(CC)c1ccc(C(c2ccc(N(CC)CC)cc2)=c2ccc3c(c2)CCc2ccccc2[N+]=3CCCN(C)C)cc1 [TPM 2]?
inhibition of HIF2a expression [5]: around 90%; lethality to mice ([6]; 1 mg IV): killed the mice; decrease in parasitemia ([6]; IV, 100 μg, mouse model): 70%; cell toxicity to trypanosome toxicity [7]: favorable; IC50 ([2]; Plasmodium falciparum, D6; read-out: IC50 (nM) vs P. falciparum D6 (Chloroquine Sensitive)): ~2500 nM; IC50 ([3]; Plasmodium falciparum, DD2; read-out: IC50 (nM) vs P. falciparum Dd2 (Multidrug Resistant)): 826 nM; growth advantage by cytokines IL-6 and IGF1 ([8]; MM.1S cells): overcomes the growth advantage; combination with bortezomib or perifosine ([8]; myeloma cells): additive benefit in combination; growth inhibition ([8]; treated up to 72 hrs, between 6 uM to 10 μM): more than 80%; cell cycle profile ([9]; MM.1S cells): induces both cell cycle arrests as well as apoptosis; apoptosis by annexin V staining ([9]; similar concentrations (6 uM to 10 μM)): induced to undergo apoptosis; cleavage of procaspases (caspase 8, 9, 3 and PARP) ([10]; 0.5 μM to 10 μM, about 48 hrs): extensively cleaved; phos-AKT level ([10]; MM.1S): not significantly reduced; phos-p53 and GADD45 levels ([10]; MM.1S): upregulaed; cell growth [11]: induced cell growth inhibition; cell killing of CD38 positive population [12]: very significant cell killing; radical formation with superoxide (ESR) [13]: appear to form a radical by reacting with superoxide

Which results are given for CCN(CC)c1ccc(C(=C2C=C3CCc4ccccc4N(CCCN(C)C)C3=CC2)c2ccc(N(CC)CC)cc2)cc1 [TPM 2]?
number of parasite/ml of blood versus control ([6]; s.c. 1 mg/mice/day from day of infection): slightly less; survival of infected mice ([6]; s.c. 1 mg/mice/day from day of infection, 5,000 parasites/mouse): died at day 4; activity in first experiment [1]: have shown activity; growth inhibition ([1]; 1 mcM, 48 hours): 72%; IC50 [1, 14]: ~600 nM; IC50 [1, 15]: 600 nM
